Measurements taken from patent US8846861B2, “Peptide clearing agents” (Mologic Ltd, priority 2009, dated 2014).
“Also recorded” adds a separate entry of the source. Read-outs that look alike come from different tables or passages of the source.

Tests used:
[1] = system: ScFv anti CEA-CPG2 fusion protein; assay: Binding studies using Surface Plasmon Resonance (Biacore), peptide immobilised on CM5 chip; parameters: species or system Psuedomonas
Source text: Peptide clearing agents of the invention are exemplified herein displaying appropriate kinetics and affinity properties. Such kinetic and affinity properties may be measured using any suitable means. Kinetic and affinity parameters may be derived based upon binding studies using Surface Plasmon Resonance (SPR), which is a well known technique (and commercially available, for example from GE Healthcare—Biacore system). Data obtained using a suitable instrument may be analysed by appropriate software to automatically derive the relevant parameters. An appropriate binding model may be applied by the software to ensure the fit to the curves is as close as possible. A chi2 value of less than 0.2 may be considered an acceptable fit.
Binding Studies Using Surface Plasmon Resonance (SPR)
Peptides were coupled to a CM5 chip using EDC/NHS chemistry as recommended by the manufacturer (GE healthcare). Analytes were made up in HBS-P buffer (0.01 M HEPES pH 7.4, 0.15 M NaCl, 0.005% v/v Surfactant P20) and injected over the surface for 180 seconds at 5 μl/min followed by a dissociation time of 300 seconds. Residual binding was removed using two 10 second injections of regeneration buffer (10 mM CHAPS, 1 mM Guanidinium hydrochloride, 2 M NaCl). Response signals and baselines were checked for consistency throughout the experiment and flow rates of 15 and 75 μl/min were tested to confirm minimal effects due to mass transport.
FIGS. 6a and 6c each show four sensorgrams overlaid. These are the blank-subtracted real time responses from injections of 12.5, 25, 50 and 100 nM ScFVanti-CEA-CPG2 over the chip surface of immobilised CP014 peptide. The data has been fitted using two different algorithms supplied in the BiaCore software (“Biaevaluation”). The first, shown in FIG. 6a, was a 1:1 binding model (Langmuir) and the second, shown in FIG. 6c, was a 2-state reaction fit. Both fits align closely to the normalised sensorgrams. […] In addition, the Chi2 values are 0.154 and 0.0882 respectively and are within the acceptable range (<0.2) for these types of calculation. For both fits the dissociation constant (binding constant KD) was in close agreement at 5 nM and 9 nM, respectively.

[2] = molecular target: CPG2 enzyme activity of ScFV anti CEA-CPG2; assay: Spectrophotometric CPG2 enzyme inhibition assay (methotrexate hydrolysis, absorbance at 320 nm); assay type: biochemical, Psuedomonas; conditions: for IC50: methotrexate substrate 60 μM, 37° C., pH 7.3; for inhibition of CPG2 activity (in words): spectrophotometric assay
Procedure: Enzyme Inhibition Assay Method Used for the Assessment of CP014 as an Inhibitor of CPG2 Activity
The effect that CP014 had on CPG2 activity was measured using a spectrophotometric assay. CP014 was dissolved in assay buffer (0.1 M Tris-HCl buffer at pH 7.3 containing 0.2 mM zinc chloride) to give a concentration of 40 mM. Various aliquots of this solution were added to cuvettes and assay buffer was added to adjust the volume of solution in each cuvette to 900 μL. 100 μL aliquots of 0.6 mM methotrexate solution in assay buffer were added to each cuvette to give a methotrexate substrate concentration of 0.06 mM (60 μM). The range of the concentration of CP014 in the cuvettes was 0-400 μM.
The substrate solutions in the cuvettes were heated to 37° C. in an oven. The cuvettes were then placed in turn in a spectrophotometer which was maintained at 37° C. using a Peltier. The assays were commenced by adding a 10 μL aliquot of fusion protein (ScFV anti CEA-CPG2) solution or CPG2 solution, followed by brief stirring. The hydrolysis of the methotrexate substrate was monitored by measuring the decrease in absorbance at 320 nm.
One unit (1 U) of CPG2 activity is defined as the amount of enzyme which catalyses the hydrolysis of 1 μmol of methotrexate per minute at 37° C. The molar extinction coefficient of methotrexate was taken as 8300 L mol^−1 cm^−1. For each assay a plot of absorbance versus time was created and a straight line was fitted to the data between 0 and 0.2 minutes. The slope of the straight line was then multiplied by minus 12 and the dilution factor of the ScFV anti CEA-CPG2/CPG2 solution to give the enzyme activity in U/mL.
A variation of the assay was to incubate various amounts of CP014 with ScFV anti CEA-CPG2 or CPG for a period of time at 4° C. prior to CPG2 assay. Following this incubation step, a 10 μL aliquot of each mixture was added to a cuvette that contained a 1 mL aliquot of 0.06 mM methotrexate in assay buffer at 37° C. After stirring the contents of the cuvette, the measurement of the decrease in absorbance and subsequent determination of enzyme activity were carried out as described above.
The effectiveness of CP014 in inhibiting CPG2 activity was expressed in terms of its IC50 value, i.e. the half maximal inhibitory concentration. Using GraphPad Prism 5 software, the IC50 value was determined by applying non-linear regression to a plot of enzyme activity versus the logarithm of the CP014 concentration.

ScFV anti CEA-CPG2 = assay: Non-amplified Amplex Red assay for screening of potential CPG2 substrates; assay type: biochemical, Psuedomonas; conditions: for substrate potential for CPG2 (in words): Amplex Red fluorescence, CP014 12.5 and 100 μM, FIG. 10 substrate 12.5 μM
Source text: Non-Amplified Amplex Red Assay for the Screening of Potential CPG2 Substrates
It was established that CP014 is a potential inhibitor of CPG2 activity using a spectrophotometric assay. […] The so-called Amplex Red assay can be used to measure to measure L-glutamate in food samples and continuously monitor glutamate oxidase activity. By eliminating an amplification step in the assay procedure, it was possible to screen compounds as substrates for CPG2. In the modified assay, L-glutamic acid that has been cleaved from a substrate of CPG2 is oxidised by glutamate oxidase to produce α-ketoglutarate, ammonia and hydrogen peroxide. The hydrogen peroxide then reacts with 10-acetyl-3,7-dihydroxyphenoxazine (Amplex Red reagent) in a 1:1 stoichiometry in a reaction catalysed by horseradish peroxidise (HRP) to generate the highly fluorescent product, resorufin.
25 μM and 200 μM solutions of CP014 in assay buffer (0.1 M Tris-HCl buffer at […] containing 0.2 mM zinc chloride), and a 25 μM solution of folic acid in assay buffer were prepared. The Amplex Red reagent mixture was prepared by combining 2.5 μL 10 mM solution of Amplex Red reagent in DMSO, 5 μL HRP solution in assay buffer (100 U/mL), 32 μL L-glutamate oxidase solution in assay buffer (5 U/mL) and 460.5 μL assay buffer solution. ScFV anti CEA-CPG2 fusion protein was diluted appropriately using assay buffer.
A 50 μL aliquot of CP014 solution or 25 μM folic acid solution and a 50 μL aliquot of the Amplex Red reagent mixture were added to a well of a black microtitre plate. The plate was covered, then incubated at 37° C. for 10 minutes. The cover was removed and a 1 μL aliquot of ScFV anti CEA-CPG2 was added. After brief stirring, the plate was placed in a BMG Fluostar Omega plate reader and the fluorescence intensity was monitored over a 245 second period at 5 second intervals. The excitation filter wavelength was set at 544 nm and the emission filter wavelength was set at 590 nm.
When ScFV anti CEA-CPG2 was diluted to a concentration of approximately 2 U/mL, the slope value that was calculated for the 12.5 μM folic acid control assay was approximately 4.0.

Nc1ccc2ccccc2c1C(=O)N[C@@H](CCC(=O)O)C(=O)O [CP006, Amino-Naphthoic Acid (ANA)-Glutamate (Glu)]
affinity for the active site of CPG2 (in words) [1]: nanomolar affinity | IC50 [2]: 88.5 µM | IC50 ([2]; listed as formula I): ~88.5 µM | inhibition of CPG2 activity (in words) [2]: is an inhibitor | substrate potential for CPG2 (in words) (ScFV anti CEA-CPG2): Poor Substrate; also recorded: low substrate activity | substrate potential for CPG2 (in words) (ScFV anti CEA-CPG2; listed as formula I): not acted upon as a substrate

C[C@@H](NC(=O)[C@@H](N)CO[C@H]1OC(CO)[C@H](O)C(O)C1O)C(=O)Nc1ccc2ccccc2c1C(=O)NC(CCC(=O)O)C(=O)O (stereo partly drawn) [CP014]
affinity for the active site of CPG2 (in words) [1]: nanomolar affinity | KA (equilibrium association constant) ([1]; 1:1 Langmuir fit): 1.98e+08 M⁻¹ | Ka (association rate constant) ([1]; 1:1 Langmuir fit): 226000 M⁻¹ s⁻¹ | Kd (dissociation rate constant) ([1]; 1:1 Langmuir fit): 0.00114 s⁻¹ | Kd ([1]; 1:1 Langmuir fit, read-out: KD (dissociation constant)): 0.00504 µM | Kd ([1]; 1:1 Langmuir fit, read-out: dissociation constant (binding constant KD)): 0.005 µM | K (equilibrium association constant) ([1]; 2 state reaction fit): 1.09e+08 M⁻¹ | ka1 ([1]; 2 state reaction fit): 284000 M⁻¹ s⁻¹ | ka2 ([1]; 2 state reaction fit): 0.014 s⁻¹ | kd1 ([1]; 2 state reaction fit): 0.0258 s⁻¹ | kd2 ([1]; 2 state reaction fit): 0.00158 s⁻¹ | Kd ([1]; 2 state reaction fit, read-out: dissociation constant (binding constant KD)): 0.009 µM | IC50 [2]: 110 µM | IC50 ([2]; listed as formula II): ~110 µM | inhibition of CPG2 activity (in words) [2]: inhibits CPG2 activity; also recorded: is an inhibitor | slope of fluorescence intensity versus time, against negative control (in words) (ScFV anti CEA-CPG2; 12.5 and 100 μM in the plate well): no greater than that of the negative control sample | substrate potential for CPG2 (in words) (ScFV anti CEA-CPG2): not a substrate; also recorded: not altered or used as a substrate; also recorded: not turned over | substrate potential for CPG2 (in words) (ScFV anti CEA-CPG2; listed as formula II): not acted upon as a substrate

Nc1nc2ncc(CNc3ccc(C(=O)N[C@@H](CCC(=O)O)C(=O)O)cc3)nc2c(=O)[nH]1 [Folic acid, reference compound]
slope of fluorescence intensity versus time (ScFV anti CEA-CPG2; 12.5 μM in well, ScFV anti CEA-CPG2 approximately 2 U/mL): approximately 4.0 | substrate potential for CPG2 (in words) (ScFV anti CEA-CPG2): positive controls

CN(Cc1cnc2nc(N)nc(N)c2n1)c1ccc(C(=O)N[C@@H](CCC(=O)O)C(=O)O)cc1 [methotrexate, reference compound]
substrate potential for CPG2 (in words) (ScFV anti CEA-CPG2): positive controls
